Laboratory results from ChEMBL document CHEMBL1134799, “4,1-Benzoxazepinone analogues of efavirenz (Sustiva) as HIV-1 reverse transcriptase inhibitors” (Bioorg Med Chem Lett, 2001).

Assays:
[1] = biological target: T1, Human immunodeficiency virus type 1 reverse transcriptase (Human immunodeficiency virus 1, UniProt Q72547); test: Compound was evaluated for its ability to inhibit HIV-1 Reverse Transcriptase in an in vitro enzyme assay
[2] = tested on: Human immunodeficiency virus type 1 reverse transcriptase (Human immunodeficiency virus 1), Q72547 [K103N]
Description: Compound was evaluated for its ability to inhibit a virus containing the clinically relevant K103N mutation

[3] = biological target: Human immunodeficiency virus type 1 reverse transcriptase (Human immunodeficiency virus 1) (UniProt Q72547)
Description: Compound was evaluated for its ability to inhibit the wild type RF strain of HIV-1

[4] = biological target: T1, Human immunodeficiency virus type 1 reverse transcriptase; test: Inhibition of HIV-1 Reverse Transcriptase in an in vitro enzyme assay
[5] = Total plasma concentration at 24 hr at a dose of 10 mg/kg when administered orally to rhesus monkey; format: ADME, organism-based, Macaca mulatta; design: dose 10 mg/kg, route oral; conditions: po, read-out: C24h
[6] = Area under curve obtained at a dose of 10 mg/kg when administered orally to rhesus monkey; format: ADME, organism-based, Macaca mulatta; design: dose 10 mg/kg, route oral; conditions: in vivo, po
[7] = Cmax was determined; format: ADME, organism-based; conditions: in vivo
[8] = Tmax was determined; format: ADME

Compound | IC50 [1] [nM] | IC90 [2] [nM] | IC90 [3] [nM] | IC50 [4] [nM] | concentration at 24 h [5] [nM] | AUC [6] [µM·h] | Cmax [7] [nM] | Tmax [8] [h]
O=C1Nc2ccc(Cl)cc2[C@@](/C=C/C2CC2)(C(F)(F)F)N1 | 23 | 27 | 2.1 | – | – | – | – | –
CC[C@H]1O[C@](C#CC2CC2)(C(F)(F)F)c2cc(F)ccc2NC1=O | 1140 | – | 87.4 | – | – | – | – | –
CCC1OC(/C=C/C2CC2)(C(F)(F)F)c2cc(F)ccc2NC1=O (centres undefined) | 151 | 70 | 2.5 | – | – | – | – | –
O=C1COC(C#Cc2ccccc2)(C(F)(F)F)c2cc(Cl)ccc2N1 (centres undefined) | 3300 | 4100 | 24.3 | – | – | – | – | –
CCC1OC(/C=C/C2CC2)(C(F)(F)F)c2cc(Cl)ccc2NC1=O (centres undefined) | 185 | 13 | 7.8 | – | – | – | – | –
O=C1COC(/C=C/C2CC2)(C(F)(F)F)c2cc(Cl)ccc2N1 (centres undefined) | 108 | 362 | 3.9 | – | – | – | – | –
CC1OC(/C=C/C2CC2)(C(F)(F)F)c2cc(F)ccc2NC1=O (centres undefined) | 129 | 118 | 7.6 | – | – | – | – | –
O=C1COC(C#Cc2ccoc2)(C(F)(F)F)c2cc(Cl)ccc2N1 (centres undefined) | 2510 | – | 47.5 | – | – | – | – | –
CC(C)C#CC1(C(F)(F)F)OCC(=O)Nc2ccc(Cl)cc21 (centres undefined) | 423 | 784 | 9.7 | – | – | – | – | –
O=C1Nc2ccc(Cl)cc2[C@@](C#CC2CC2)(C(F)(F)F)N1 | 32 | 10 | 2 | – | – | – | – | –
CCC1OC(C#CC2CC2)(C(F)(F)F)c2cc(Cl)ccc2NC1=O (centres undefined) | – | 139 | 8.4 | 391 | – | – | – | –
O=C1COC(C#CC2CC2)(C(F)(F)F)c2cc(Cl)ccc2N1 (centres undefined) | 432 | 1400 | 9.1 | – | – | – | – | –
C[C@H]1O[C@](C#CC2CC2)(C(F)(F)F)c2cc(Cl)ccc2NC1=O | 249 | 1130 | 7 | – | – | – | – | –
CC[C@@H]1O[C@](C#CC2CC2)(C(F)(F)F)c2cc(F)ccc2NC1=O | 171 | 117 | 5.3 | – | – | – | – | –
C[C@@H]1O[C@](C#CC2CC2)(C(F)(F)F)c2cc(F)ccc2NC1=O | 95 | 333 | 5.2 | – | – | – | – | –
CC1OC(/C=C/C2CC2)(C(F)(F)F)c2c(ccc(F)c2F)NC1=O (centres undefined) | 173 | 81 | 5.2 | – | – | – | – | –
C[C@@H]1O[C@](C#CC2CC2)(C(F)(F)F)c2cc(Cl)ccc2NC1=O (relative stereo) | 82 | 29 | 2.2 | – | 1140 | 30 | 1670 | 6
CC1OC(C#CC2CC2)(C(F)(F)F)c2c(ccc(F)c2F)NC1=O (centres undefined) | 193 | 75 | 5.8 | – | – | – | – | –
O=C1Nc2ccc(Cl)cc2C(C#CC2CC2)(C(F)(F)F)OC1CC(F)(F)F (centres undefined) | 235 | – | 16.8 | – | – | – | – | –
CCC#CC1(C(F)(F)F)OCC(=O)Nc2ccc(Cl)cc21 (centres undefined) | 964 | 1760 | 9.1 | – | – | – | – | –
CCCC1OC(C#CC2CC2)(C(F)(F)F)c2cc(Cl)ccc2NC1=O (centres undefined) | 799 | – | 17.2 | – | – | – | – | –
CC(C)C1OC(C#CC2CC2)(C(F)(F)F)c2cc(Cl)ccc2NC1=O (centres undefined) | 597 | – | 20.7 | – | – | – | – | –
CC1OC(/C=C/C2CC2)(C(F)(F)F)c2cc(Cl)ccc2NC1=O (centres undefined) | 46 | 35 | 2.5 | – | 1400 | 50.8 | 2360 | 11
C[C@H]1O[C@](C#CC2CC2)(C(F)(F)F)c2cc(F)ccc2NC1=O | 1940 | – | 189 | – | – | – | – | –
